# Target: T1, active p38 alpha enzyme (Upstate Biotechnology) (Homo sapiens, UniProt Q16539)
# T1 construct: purchased Upstate Biotechnology
# Assay: p38α biochemical assay (ATP turnover, luminescent detection, Cambrex PKlight)
# Conditions: p38α biochemical assay, Table 1 Biological Activity
# Method in brief: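 Active human p38α was incubated with full-length MapkapK2 protein as substrate and 1.4 uM ATP (final) for 2 hours at 30C. Buffer: 200 mM Tris, 100 mM MgCl2, 1.5 mM EGTA, 4 mM CaCl2, 20 mM MOPS, 1 mM EDTA, 1% glycerol, 0.1% β-mercaptoethanol, 1 mg/ml BSA. Total ATP turnover read by luminescence.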
# T1 sequence (Q16539 whole entry): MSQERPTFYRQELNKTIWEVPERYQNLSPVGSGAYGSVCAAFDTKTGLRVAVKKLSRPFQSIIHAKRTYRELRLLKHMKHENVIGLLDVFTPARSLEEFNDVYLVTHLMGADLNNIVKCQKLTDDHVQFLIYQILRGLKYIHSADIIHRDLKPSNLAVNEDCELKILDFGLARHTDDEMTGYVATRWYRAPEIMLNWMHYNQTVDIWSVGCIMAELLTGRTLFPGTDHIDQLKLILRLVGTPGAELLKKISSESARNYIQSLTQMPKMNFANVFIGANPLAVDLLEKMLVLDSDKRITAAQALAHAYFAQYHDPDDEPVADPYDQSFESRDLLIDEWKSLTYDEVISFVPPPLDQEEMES
row,SMILES,IC50
1,CC(C)NC(=O)c1csc(-c2oc(CN3CCN(C(=O)c4cccc(Cl)c4[N+](=O)[O-])CC3)nc2-c2ccc(F)cc2)n1 [Example 507],≤ 1000 nM
2,CC(C)NC(=O)c1csc(-c2oc(CNC(=O)c3cccc(C#N)c3)nc2-c2ccc(F)cc2)n1 [Example 130],≤ 1000 nM
3,CC(C)NC(=O)c1csc(-c2oc(CNC(=O)c3ccc(C=O)cc3)nc2-c2ccc(F)cc2)n1 [Example 133],≤ 1000 nM
4,CC(C)NC(=O)c1csc(-c2oc(CNC(=O)c3cnc(O)c(Cl)c3)nc2-c2ccc(F)cc2)n1 [Example 198],≤ 1000 nM
5,CC(C)NC(=O)c1csc(-c2oc(CN3CCN(C(=O)COc4ccccc4C=O)CC3)nc2-c2ccc(F)cc2)n1 [Example 449],> 1000 nM
6,Cc1ccc(C)c(C(=O)NCc2onc(-c3ccc(F)cc3)c2-c2nc(C(=O)NC(C)C)cs2)c1 [Example 612],> 1000 nM
7,CC(C)NC(=O)c1csc(-c2oc(CN3CCN(C(=O)C(C)c4cccc(C(=O)c5ccccc5)c4)CC3)nc2-c2ccc(F)cc2)n1 (stereo not shown) [Example 567],> 1000 nM
8,CC(C)NC(=O)c1csc(-c2c(-c3ccc(F)cc3)noc2CNC(=O)C(C)(C)C)n1 [Example 578],> 1000 nM
9,CC(C)NC(=O)c1csc(-c2c(-c3ccc(F)cc3)noc2CNC(=O)C(C)c2ccc(O)cc2)n1 (stereo not shown) [Example 658],> 1000 nM
10,CC(C)NC(=O)c1csc(-c2oc(CN3CCN(C(=O)C4N=CC([N+](=O)[O-])=CC=C4Cl)CC3)nc2-c2ccc(F)cc2)n1 (stereo not shown) [Example 508],≤ 1000 nM
11,CC(=O)Oc1ccc(C(=O)NCc2nc(-c3ccc(F)cc3)c(-c3nc(C(=O)NC(C)C)cs3)o2)cc1 [Example 213],> 1000 nM
12,CC(C)NC(=O)c1csc(-c2oc(CN3CCN(C(=O)CC4Cc5ccccc5C4)CC3)nc2-c2ccc(F)cc2)n1 [Example 440],≤ 1000 nM
13,CC(C)NC(=O)c1csc(-c2c(-c3ccc(F)cc3)noc2CNC(=O)c2cc(F)c(F)cc2Cl)n1 [Example 733],> 1000 nM
14,"Cc1onc(-c2ccc(Cl)cc2)c1-c1ccn(C(=O)NC(CO)CO)n1 [Example 14, 3-|3-(4-Chloro-phenyl)-5-methyl-isoxazol-4-yl|-pyrazole-1-carboxylic acid (2-hydroxy-1-hydroxymethyl-ethyl)-amide]",> 1000 nM
15,CCC(C(=O)NCc1onc(-c2ccc(F)cc2)c1-c1nc(C(=O)NC(C)C)cs1)c1ccccc1 (stereo not shown) [Example 649],> 1000 nM
16,CCCOc1ccc(C(=O)NCc2onc(-c3ccc(F)cc3)c2-c2nc(C(=O)NC(C)C)cs2)cc1 [Example 693],> 1000 nM
17,CC(C)NC(=O)c1csc(-c2oc(CN3CCN(C(=O)c4ccc(OC(C)C)cc4)CC3)nc2-c2ccc(F)cc2)n1 [Example 456],≤ 1000 nM

row,SMILES,IC50
1,Cc1ccc(F)cc1C(=O)NCc1onc(-c2ccc(F)cc2)c1-c1nc(C(=O)NC(C)C)cs1 [Example 625],> 1000 nM
2,CC(C)NC(=O)c1csc(-c2c(-c3ccc(F)cc3)noc2CNC(=O)c2cccnc2Cl)n1 [Example 628],> 1000 nM
3,CCOC(=O)CC(=O)NCc1onc(-c2ccc(F)cc2)c1-c1nc(C(=O)NC(C)C)cs1 [Example 595],> 1000 nM
4,CC(C)NC(=O)c1csc(-c2oc(CNC(=O)c3ccc(C(C)C)cc3)nc2-c2ccc(F)cc2)n1 [Example 171],> 1000 nM
5,CC(C)NC(=O)c1csc(-c2oc(CN3CCN(C(=O)/C=C/c4ccc5c(c4)OCO5)CC3)nc2-c2ccc(F)cc2)n1 [Example 492],> 1000 nM
6,CC(C)NC(=O)c1csc(-c2oc(CNC(=O)c3ccccc3C(F)(F)F)nc2-c2ccc(F)cc2)n1 [Example 249],≤ 1000 nM
7,CC(C)NC(=O)c1csc(-c2oc(CN3CCN(C(=O)c4cc(F)c(Cl)cc4F)CC3)nc2-c2ccc(F)cc2)n1 [Example 496],> 1000 nM
8,CC(C)NC(=O)c1csc(-c2oc(CNC(=O)c3ccc4ncccc4c3)nc2-c2ccc(F)cc2)n1 [Example 197],≤ 1000 nM
9,Cc1cc(C(=O)N2CCN(Cc3nc(-c4ccc(F)cc4)c(-c4nc(C(=O)NC(C)C)cs4)o3)CC2)n[nH]1 [Example 353],≤ 1000 nM
10,COc1cc(C(=O)N2CCN(Cc3nc(-c4ccc(F)cc4)c(-c4nc(C(=O)NC(C)C)cs4)o3)CC2)cc(OC)c1OC [Example 522],> 1000 nM
11,"Cc1nc(-c2ccc(F)cc2)c(-c2nc(C(=O)NCc3ccccn3)cs2)s1 [Example 56, 4′-(4-Fluoro-phenyl)-2′-methyl-|2,5′|bithiazolyl-4-carboxylic acid (pyridin-2-ylmethyl)-amide]",≤ 1000 nM
12,"Cc1onc(-c2ccc(F)c(Cl)c2)c1-c1ccn(C(=O)NC(C)C)n1 [Example 23, 3-|3-(3-Chloro-4-fluoro-phenyl)-5-methyl-isoxazol-4-yl|-pyrazole-1-carboxylic acid isopropylamide]",≤ 1000 nM
13,CC(C)NC(=O)c1csc(-c2oc(CNC(=O)c3ccc(OCc4ccccc4)cc3)nc2-c2ccc(F)cc2)n1 [Example 308],≤ 1000 nM
14,CC(C)NC(=O)c1csc(-c2oc(CNC(=O)/C=C/c3ccccc3O)nc2-c2ccc(F)cc2)n1 [Example 166],≤ 1000 nM
15,CC(C)NC(=O)c1csc(-c2oc(CN3CCN(C(=O)c4cc5ccccc5o4)CC3)nc2-c2ccc(F)cc2)n1 [Example 400],> 1000 nM
16,CC(C)NC(=O)c1csc(-c2oc(CN3CCN(C(=O)c4cccc(Br)c4)CC3)nc2-c2ccc(F)cc2)n1 [Example 505],> 1000 nM

# Same assay, conditions: p38α kinase; Table 1 Biological Activity
row,SMILES,IC50
1,CC(=O)Nc1ccc(NC(=O)c2csc(-c3sc(C)nc3-c3ccc(F)cc3)n2)cc1 [Example 2000],≤ 1000 nM
2,CCOc1ccccc1CNCc1nc(-c2ccc(F)cc2)c(-c2nc(C(=O)NC(C)C)cs2)o1 [Example 1147],> 1000 nM
3,COc1cccc(NCc2onc(-c3ccc(F)cc3)c2-c2nc(C(=O)NC(C)C)cs2)c1 [Example 1647],> 1000 nM
4,COc1cccc(CNCc2nc(-c3ccc(F)cc3)c(-c3nc(C(=O)NC(C)C)cs3)o2)c1 [Example 1126],> 1000 nM
5,Cc1ccc(C)c(N2CCN(Cc3onc(-c4ccc(F)cc4)c3-c3nc(C(=O)NC(C)C)cs3)CC2)c1 [Example 1594],> 1000 nM
6,CC(C)NC(=O)c1csc(-c2c(-c3ccc(F)cc3)n[nH]c2C2CCN(C(=O)c3ccc(N(C)C=O)cc3)CC2)n1 [Example 924],> 1000 nM
7,CC(C)NC(=O)c1csc(-c2c(-c3ccc(F)cc3)noc2CN2CCC(Cc3ccccc3)CC2)n1 [Example 1574],> 1000 nM
8,CCOc1ccc(OCC)c(NCc2nc(-c3ccc(F)cc3)c(-c3nc(C(=O)NC(C)C)cs3)o2)c1 [Example 1366],> 1000 nM
9,Cc1nc(-c2ccc(F)cc2)c(-c2nc(C(=O)Nc3ccc4c(c3)OCCO4)cs2)s1 [Example 2002],≤ 1000 nM
10,CCN(CC)CCCC(C)NCc1nc(-c2ccc(F)cc2)c(-c2nc(C(=O)NC(C)C)cs2)o1 (stereo not shown) [Example 1153],> 1000 nM
11,CC(C)NC(=O)c1csc(-c2c(-c3ccc(F)cc3)n[nH]c2C2CCN(C(=O)c3ccc(O)cc3O)CC2)n1 [Example 862],> 1000 nM
12,COCC(C)NCc1onc(-c2ccc(F)cc2)c1-c1nc(C(=O)NC(C)C)cs1 (stereo not shown) [Example 1403],> 1000 nM
13,O=C(NCCCO)c1csc(-c2c(-c3ccc(F)cc3)n[nH]c2C2CCNCC2)n1 [Example 2041],≤ 1000 nM
14,CC(C)NC(=O)c1csc(-c2oc(CN(C)Cc3cccc4ccccc34)nc2-c2ccc(F)cc2)n1 [Example 1283],> 1000 nM
15,CCN(C)Cc1nc(-c2ccc(F)cc2)c(-c2nc(C(=O)NC(C)C)cs2)o1 [Example 1186],> 1000 nM
16,COc1ccc(NCc2nc(-c3ccc(F)cc3)c(-c3nc(C(=O)NC(C)C)cs3)o2)cc1OC [Example 1148],> 1000 nM
17,CC(C)NC(=O)c1csc(-c2c(-c3ccc(F)cc3)noc2CN(C)CCc2ccccc2)n1 [Example 1552],> 1000 nM

row,SMILES,IC50
1,CC(C)NC(=O)c1csc(-c2oc(CNCC#N)nc2-c2ccc(F)cc2)n1 [Example 1052],> 1000 nM
2,O=C(NCCCn1ccnc1)c1csc(-c2c(-c3ccc(F)cc3)n[nH]c2C2CCNCC2)n1 [Example 2083],> 1000 nM
3,CC(C)NC(=O)c1csc(-c2c(-c3ccc(F)cc3)noc2CNC2CCCCCC2)n1 [Example 1422],> 1000 nM
4,CC(C)Cc1ccc(C(C)C(=O)N2CCC(c3[nH]nc(-c4ccc(F)cc4)c3-c3nc(C(=O)NC(C)C)cs3)CC2)cc1 (stereo not shown) [Example 994],> 1000 nM
5,CC(C)NC(=O)c1csc(-c2c(-c3ccc(F)cc3)n[nH]c2C2CCN(C(=O)Cc3ccc(C(F)(F)F)cc3)CC2)n1 [Example 993],> 1000 nM
6,CC(C)NC(=O)c1csc(-c2oc(CN(CCCO)Cc3ccccn3)nc2-c2ccc(F)cc2)n1 [Example 1245],> 1000 nM
7,CC(C)NC(=O)c1csc(-c2oc(CNc3ccccc3-n3cccc3)nc2-c2ccc(F)cc2)n1 [Example 1354],> 1000 nM
8,CCN(C(=O)c1csc(-c2sc(C)nc2-c2ccc(F)cc2)n1)C(C)C [Example 1843],> 1000 nM
9,CC(C)NC(=O)c1csc(-c2oc(CNc3cnc4ccccc4c3)nc2-c2ccc(F)cc2)n1 [Example 1346],> 1000 nM
10,CC(C)CNC(=O)c1csc(-c2c(-c3ccc(F)cc3)n[nH]c2C2CCNCC2)n1 [Example 2040],> 1000 nM
11,CC(C)NC(=O)c1csc(-c2c(-c3ccc(F)cc3)noc2CNCc2ccc(N(C)C)cc2)n1 [Example 1499],> 1000 nM
12,Cc1nc(-c2ccc(F)cc2)c(-c2nc(C(=O)NCc3ccncc3)cs2)s1 [Example 1742],≤ 1000 nM
13,Cc1ccc(C)c(CNC(=O)c2csc(-c3c(-c4ccc(F)cc4)n[nH]c3C3CCNCC3)n2)c1 [Example 2091],> 1000 nM
14,CC(C)NC(=O)c1csc(-c2c(-c3ccc(F)cc3)n[nH]c2C2CCN(C(=O)c3cccc4ccccc34)CC2)n1 [Example 908],≤ 1000 nM
15,Cc1nc(-c2ccc(F)cc2)c(-c2nc(C(=O)NCCC(c3ccccc3)c3ccccc3)cs2)s1 [Example 1831],> 1000 nM
16,CC(C)NC(=O)c1csc(-c2c(-c3ccc(F)cc3)noc2CN2CCN(CCN3CCOCC3)CC2)n1 [Example 1604],> 1000 nM
17,Cc1nc(-c2ccc(F)cc2)c(-c2nc(C(=O)NCCOc3ccccc3)cs2)s1 [Example 1778],≤ 1000 nM

# Reference: US20060252807A1, “Novel ortho-terphenyl inhibitors of p38 kinase and methods of treating inflammatory disorders” (Kalypsys, Inc., priority 2005, published 2006)
